PubChem BioAssay AID1963973 (Molecular Pharmacology Branch, DTP, NCI, 2024)

Tested on: 883617-216-R-J1-PDC tumor spheroids, viability
Experiment: Anticancer human tumor 883617-216-R-J1-PDC patient-derived bladder carcinoma cell line growth inhibition [PI3K]
Conditions: spheroids with HUVEC and MSC; for IC50: curve of first compound; for viability, T/C: stronger effect = lower value
Outline: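 Combination activity was assessed by viability in multicellular tumor spheroids carrying HUVEC and MSC components. Agents were tested with PI3K inhibitors from a Cmax-based top dose (or 10 microM) downward in half-log increments.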

[1] = second compound 0.00316 µM, first compound 0.0316 µM
[2] = second compound 0.00316 µM, first compound 0.1 µM
[3] = second compound 0.00316 µM, first compound 0.316 µM
[4] = second compound 0.00316 µM, first compound 1 µM
[5] = second compound 0.00316 µM, first compound 3.16 µM
[6] = second compound 0.00316 µM, first compound 10 µM
[7] = second compound 0.01 µM, first compound 0.0316 µM
[8] = second compound 0.01 µM, first compound 0.1 µM
[9] = second compound 0.01 µM, first compound 0.316 µM
[10] = second compound 0.01 µM, first compound 1 µM
[11] = second compound 0.01 µM, first compound 3.16 µM
[12] = second compound 0.01 µM, first compound 10 µM
[13] = second compound 0.0316 µM, first compound 0.0316 µM
[14] = second compound 0.0316 µM, first compound 0.1 µM
[15] = second compound 0.0316 µM, first compound 0.316 µM
[16] = second compound 0.0316 µM, first compound 1 µM
[17] = second compound 0.0316 µM, first compound 3.16 µM
[18] = second compound 0.0316 µM, first compound 10 µM
[19] = second compound 0.1 µM, first compound 0.0316 µM
[20] = second compound 0.1 µM, first compound 0.1 µM
[21] = second compound 0.1 µM, first compound 0.316 µM
[22] = second compound 0.1 µM, first compound 1 µM
[23] = second compound 0.1 µM, first compound 3.16 µM
[24] = second compound 0.1 µM, first compound 10 µM
[25] = second compound 0.316 µM, first compound 0.0316 µM
[26] = second compound 0.316 µM, first compound 0.1 µM
[27] = second compound 0.316 µM, first compound 0.316 µM
[28] = second compound 0.316 µM, first compound 1 µM
[29] = second compound 0.316 µM, first compound 3.16 µM
[30] = second compound 0.316 µM, first compound 10 µM
[31] = second compound 1 µM, first compound 0.0316 µM
[32] = second compound 1 µM, first compound 0.1 µM
[33] = second compound 1 µM, first compound 0.316 µM
[34] = second compound 1 µM, first compound 1 µM
[35] = second compound 1 µM, first compound 3.16 µM
[36] = second compound 1 µM, first compound 10 µM
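Also: spheroids exposed to agents for 7 days before the viability read.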

For `Cn1nccc1Nc1nccc(-c2ccn(C(CO)c3ccc(Cl)c(F)c3)c(=O)c2)n1` (stereo not drawn) + CC(Nc1ccc2c(c1)OCCn1cc(N3C(=O)OCC3C(F)F)nc1-2)C(N)=O, the IC50 (second compound 0.00316 µM) was 9310 nM, the IC50 (second compound 0.01 µM) was over 10000 nM and the IC50 (second compound 0.0316 µM) was 888 nM. The IC50 (second compound 0.1 µM) was under 31.6 nM, the IC50 (second compound 0.316 µM) was under 31.6 nM and the IC50 (second compound 1 µM) was under 31.6 nM. It also gave a viability, T/C [1] of 83.2%, a viability, T/C [2] of 67.5% and a viability, T/C [3] of 80.3%. For the same molecule, the viability, T/C [4] was 75.6%, the viability, T/C [5] was 80.1% and the viability, T/C [6] was 48.1%. For the same molecule, the viability, T/C [7] was 85.6%, the viability, T/C [8] was 74.7% and the viability, T/C [9] was 77.3%. For the same molecule, the viability, T/C [10] was 64.2%, the viability, T/C [11] was 58.2% and the viability, T/C [12] was 50.1%. The viability, T/C [13] was 66.5%, the viability, T/C [14] was 65.9% and the viability, T/C [15] was 67.1%. The viability, T/C [16] was 48.1%, the viability, T/C [17] was 35.9% and the viability, T/C [18] was 34.2%. It also gave a viability, T/C [19] of 44%, a viability, T/C [20] of 45.1% and a viability, T/C [21] of 38.1%. It also gave a viability, T/C [22] of 37.1%, a viability, T/C [23] of 27.6% and a viability, T/C [24] of 22.4%. It also gave a viability, T/C [25] of 25.1%, a viability, T/C [26] of 22.8% and a viability, T/C [27] of 17.2%. The viability, T/C [28] was 16.2%, the viability, T/C [29] was 15.2% and the viability, T/C [30] was 9.06%. For the same molecule, the viability, T/C [31] was 14.9%, the viability, T/C [32] was 13.6% and the viability, T/C [33] was 12%. It also gave a viability, T/C [34] of 11%, a viability, T/C [35] of 9.01% and a viability, T/C [36] of 6.11%.

`CC(C)NCC(C(=O)N1CCN(c2ncnc3c2C(C)CC3O)CC1)c1ccc(Cl)cc1` (stereo not drawn) + CC(Nc1ccc2c(c1)OCCn1cc(N3C(=O)OCC3C(F)F)nc1-2)C(N)=O was tested, and the IC50 (second compound 0.00316 µM) was 453 nM, the IC50 (second compound 0.01 µM) was 520 nM and the IC50 (second compound 0.0316 µM) was 254 nM. It also gave an IC50 (second compound 0.1 µM) of 76.6 nM, an IC50 (second compound 0.316 µM) of under 31.6 nM and an IC50 (second compound 1 µM) of under 31.6 nM. It also gave a viability, T/C [1] of 83.7%, a viability, T/C [2] of 81.7% and a viability, T/C [3] of 57.4%. For the same molecule, the viability, T/C [4] was 30.3%, the viability, T/C [5] was 15.1% and the viability, T/C [6] was 6.47%. For the same molecule, the viability, T/C [7] was 74.1%, the viability, T/C [8] was 79.9% and the viability, T/C [9] was 64%. It also gave a viability, T/C [10] of 30.3%, a viability, T/C [11] of 14.8% and a viability, T/C [12] of 5.88%. For the same molecule, the viability, T/C [13] was 73.8%, the viability, T/C [14] was 62% and the viability, T/C [15] was 48.1%. For the same molecule, the viability, T/C [16] was 27.1%, the viability, T/C [17] was 12.8% and the viability, T/C [18] was 6.19%. The viability, T/C [19] was 87.1%, the viability, T/C [20] was 32.9% and the viability, T/C [21] was 27.9%. For the same molecule, the viability, T/C [22] was 19.2%, the viability, T/C [23] was 10.1% and the viability, T/C [24] was 5.7%. The viability, T/C [25] was 27.5%, the viability, T/C [26] was 26.4% and the viability, T/C [27] was 20.7%. The viability, T/C [28] was 13.2%, the viability, T/C [29] was 7.79% and the viability, T/C [30] was 4.52%. The viability, T/C [31] was 14.9%, the viability, T/C [32] was 21.9% and the viability, T/C [33] was 15.7%. The viability, T/C [34] was 10.1%, the viability, T/C [35] was 10.1% and the viability, T/C [36] was 3.3%.

In the case of `Cn1nccc1Nc1nccc(-c2ccn(C(CO)c3ccc(Cl)c(F)c3)c(=O)c2)n1` (stereo not drawn) + Cc1nc(NC(=O)N2CCCC2C(N)=O)sc1-c1ccnc(C(C)(C)C(F)(F)F)c1, the IC50 (second compound 0.0316 µM) is reported as 9040 nM, the IC50 (second compound 0.1 µM) is reported as 2550 nM and the IC50 (second compound 0.316 µM) is reported as under 31.6 nM. The IC50 (second compound 1 µM) was under 31.6 nM, the IC50 (second compound 3.16 µM) was under 31.6 nM and the IC50 (second compound 10 µM) was under 31.6 nM. It also gave a viability, T/C [13] of 82.5%, a viability, T/C [14] of 79.8% and a viability, T/C [15] of 68.7%. The viability, T/C [16] was 68.3%, the viability, T/C [17] was 68% and the viability, T/C [18] was 46.3%. The viability, T/C [19] was 69.7%, the viability, T/C [20] was 72.5% and the viability, T/C [21] was 66.7%. For the same molecule, the viability, T/C [22] was 56%, the viability, T/C [23] was 48.7% and the viability, T/C [24] was 33.2%. It also gave a viability, T/C [25] of 47.3%, a viability, T/C [26] of 44.1% and a viability, T/C [27] of 43.9%. For the same molecule, the viability, T/C [28] was 34.5%, the viability, T/C [29] was 30.8% and the viability, T/C [30] was 24.4%. For the same molecule, the viability, T/C [31] was 26.2%, the viability, T/C [32] was 25.7% and the viability, T/C [33] was 26.3%. It also gave a viability, T/C [34] of 20.5%, a viability, T/C [35] of 15.1% and a viability, T/C [36] of 12.8%. For the same molecule, the viability, T/C (second compound 3.16 µM, first compound 0.0316 µM) was 13.3%, the viability, T/C (second compound 3.16 µM, first compound 0.1 µM) was 12.2% and the viability, T/C (second compound 3.16 µM, first compound 0.316 µM) was 9.5%. It also gave a viability, T/C (second compound 3.16 µM, first compound 1 µM) of 9.97%, a viability, T/C (second compound 3.16 µM, first compound 3.16 µM) of 8.33% and a viability, T/C (second compound 3.16 µM, first compound 10 µM) of 7.21%. For the same molecule, the viability, T/C (second compound 10 µM, first compound 0.0316 µM) was 5.74%, the viability, T/C (second compound 10 µM, first compound 0.1 µM) was 5.78% and the viability, T/C (second compound 10 µM, first compound 0.316 µM) was 4.59%. It also gave a viability, T/C (second compound 10 µM, first compound 1 µM) of 4.62%, a viability, T/C (second compound 10 µM, first compound 3.16 µM) of 3.21% and a viability, T/C (second compound 10 µM, first compound 10 µM) of 1.26%.

`CCCS(=O)(=O)Nc1ccc(F)c(C(=O)c2c[nH]c3ncc(-c4ccc(Cl)cc4)cc23)c1F` + COc1c(OCCCN2CCOCC2)ccc2c3n(c(=NC(=O)c4cnc(N)nc4)nc12)CCN3 showed an IC50 (second compound 0.00316 µM) of 4090 nM, an IC50 (second compound 0.01 µM) of 3650 nM and an IC50 (second compound 0.0316 µM) of under 31.6 nM. It also gave an IC50 (second compound 0.1 µM) of under 31.6 nM, an IC50 (second compound 0.316 µM) of under 31.6 nM and an IC50 (second compound 1 µM) of under 31.6 nM. It also gave a viability, T/C [1] of 78.5%, a viability, T/C [2] of 88.4% and a viability, T/C [3] of 85.1%. The viability, T/C [4] was 77.9%, the viability, T/C [5] was 61.7% and the viability, T/C [6] was 10.4%. The viability, T/C [7] was 67%, the viability, T/C [8] was 72.6% and the viability, T/C [9] was 85.3%. For the same molecule, the viability, T/C [10] was 61.7%, the viability, T/C [11] was 56.6% and the viability, T/C [12] was 13.1%. The viability, T/C [13] was 38.8%, the viability, T/C [14] was 45.7% and the viability, T/C [15] was 47%. It also gave a viability, T/C [16] of 44.2%, a viability, T/C [17] of 36.9% and a viability, T/C [18] of 12.8%. For the same molecule, the viability, T/C [19] was 25%, the viability, T/C [20] was 19.9% and the viability, T/C [21] was 17.6%. It also gave a viability, T/C [22] of 17.8%, a viability, T/C [23] of 18% and a viability, T/C [24] of 7.55%. The viability, T/C [25] was 5.17%, the viability, T/C [26] was 7.28% and the viability, T/C [27] was 6.6%. For the same molecule, the viability, T/C [28] was 8.36%, the viability, T/C [29] was 9.94% and the viability, T/C [30] was 4.39%. The viability, T/C [31] was 3.48%, the viability, T/C [32] was 4.22% and the viability, T/C [33] was 4.32%. It also gave a viability, T/C [34] of 5.19%, a viability, T/C [35] of 6.41% and a viability, T/C [36] of 2.37%.
